Experiments:
Sphaerotheca fuliginea = experiment: Example IX-C: in vivo preventive test on Sphaerotheca fuliginea (powdery mildew on cucurbits); settings: Podosphaera fuliginea, 360 h; compounds of formula IX; 500 ppm of active ingredient; gherkin plants, preventive spray; evaluated 15 days after inoculation; read-out: efficacy
Description: Example IX-C: In Vivo Preventive Test on Sphaerotheca Fuliginea (Powdery Mildew on Cucurbits)
(§1) The active ingredients are made soluble and homogenized in a mixture of Dimethyl sulfoxide/Acetone/Tween® 80 and then diluted in water to the desired concentration.
The young plants of gherkin are treated by spraying the active ingredient prepared as described above. Control plants are treated only with an aqueous solution of Acetone/Dimethyl sulfoxide/Tween® 80.
After 24 hours, the plants are contaminated by spraying the leaves with an aqueous suspension of Sphaerotheca fuliginea spores. The contaminated gherkin plants are incubated for 72 hours at 18° C. and at 100% relative humidity and then for 12 days at 20° C. and at 70-80% relative humidity.
The test is evaluated 15 days after the inoculation. 0% means an efficacy which corresponds to that of the control plants while an efficacy of 100% means that no disease is observed.

Septoria tritici = experiment: Example IX-B: in vivo preventive test on Septoria tritici (leaf spot on wheat); settings: Zymoseptoria tritici, 576 h; compounds of formula IX; 500 ppm of active ingredient; wheat plants, preventive spray; evaluated 24 days after inoculation; read-out: efficacy
Description: Example IX-B: In Vivo Preventive Test on Septoria Tritici (Leaf Spot on Wheat)
as §1
(§2) The young plants of wheat are treated by spraying the active ingredient prepared as described above. Control plants are treated only with an aqueous solution of Acetone/Dimethyl sulfoxide/Tween® 80.
After 24 hours, the plants are contaminated by spraying the leaves with an aqueous suspension of Septoria tritici spores. The contaminated wheat plants are incubated for 72 hours at 18° C. and at 100% relative humidity and then for 21 days at 20° C. and at 90% relative humidity.
The test is evaluated 24 days after the inoculation. 0% means an efficacy which corresponds to that of the control plants while an efficacy of 100% means that no disease is observed.

[1] = Log P by HPLC on reversed phase columns (EEC directive 79/831 Annex V.A8; methods [a], [b], [c]); format: physicochemical; settings: reversed phase HPLC column; method [a]: LC-UV, acidic range, 0.1% formic acid in water and acetonitrile as eluent (linear gradient from 10% to 95% acetonitrile)
Summary of the method: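 Reversed-phase HPLC with LC-UV detection, 10→95% acetonitrile linear gradient; aqueous eluent 0.1% formic acid [a], 0.001 M ammonium acetate, neutral [b], or 0.1% phosphoric acid [c]. Calibrated against C3–C16 alkan-2-ones of known Log P by retention-time linear interpolation; multiple values within a method separated by "+".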

Uromyces appendiculatus = experiment: Example IX-D: in vivo preventive test on Uromyces appendiculatus (bean rust); settings: 264 h, compounds of formula IX, 500 ppm of active ingredient, bean plants, preventive spray, evaluated 11 days after inoculation, read-out: efficacy
Description: Example IX-D: In Vivo Preventive Test on Uromyces Appendiculatus (Bean Rust)
as §1
The young plants of bean are treated by spraying the active ingredient prepared as described above. Control plants are treated only with an aqueous solution of Acetone/Dimethyl sulfoxide/Tween® 80.
After 24 hours, the plants are contaminated by spraying the leaves with an aqueous suspension of Uromyces appendiculatus spores. The contaminated bean plants are incubated for 24 hours at 20° C. and at 100% relative humidity and then for 10 days at 20° C. and at 70-80% relative humidity.
(§3) The test is evaluated 11 days after the inoculation. 0% means an efficacy which corresponds to that of the control plants while an efficacy of 100% means that no disease is observed.
control plants while an efficacy of 100% means that no disease was observed.

Puccinia recondita = experiment: Example IX-A: in vivo preventive test on Puccinia recondita (brown rust on wheat); settings: 264 h, compounds of formula IX, 500 ppm of active ingredient, wheat plants, preventive spray, evaluated 11 days after inoculation, read-out: efficacy
Description: Example IX-A: In Vivo Preventive Test on Puccinia Recondita (Brown Rust on Wheat)
as §1, §2
After 24 hours, the plants are contaminated by spraying the leaves with an aqueous suspension of Puccinia recondita spores. The contaminated wheat plants are incubated for 24 hours at 20° C. and at 100% relative humidity and then for 10 days at 20° C. and at 70-80% relative humidity.
as §3

chromatographic logP [1]	SMILES	pest or weed control at 500 ppm (Sphaerotheca fuliginea) [%]	pest or weed control at 500 ppm (Septoria tritici) [%]	pest or weed control at 500 ppm (Uromyces appendiculatus) [%]	pest or weed control at 500 ppm (Puccinia recondita) [%]
3.55	N#Cc1cncn1CC(=O)c1ccc(Oc2ccc(Br)cc2)cc1Cl [IX-58, 1-[4-(4-bromophenoxy)-2-chloro-phenyl]-2-(5-cyanoimidazol-1-yl)ethanone]	90 to 100	90 to 100	90 to 100	90 to 100
3.55	O=C(Cn1cncc1Br)c1ccc(Oc2ccc(I)cc2)cc1Br [IX-42]	90 to 100	90 to 100	90 to 100	80 to 89
3.22	O=C(Cn1cncc1Cl)c1ccc(Oc2ccc(Br)cc2)cc1Br [IX-37]	90 to 100	90 to 100	90 to 100	80 to 89
2.56	O=C(Cn1cncc1F)c1cnc(Oc2ccc(C(F)(F)F)cc2)cc1Cl [IX-110]	90 to 100	90 to 100	90 to 100	90 to 100
3.64	N#Cc1cncn1CC(=O)c1cnc(Oc2ccc(OC(F)(F)F)cc2)cc1C(F)(F)F [IX-112]	90 to 100	80 to 89	90 to 100	80 to 89
3.35	O=C(Cn1cncc1Cl)c1ccc(Oc2ccc(I)cc2)cc1Br [IX-38]	90 to 100	90 to 100	90 to 100	90 to 100
2.53	O=C(Cn1cncc1Cl)c1ccc(Oc2ccc(Cl)cn2)cc1Cl [IX-05]	90 to 100	80 to 89	80 to 89	70 to 79
3.42	N#Cc1cncn1CC(=O)c1ccc(Oc2ccc(S(F)(F)(F)(F)F)cc2)nc1Cl [IX-74]	90 to 100	90 to 100	90 to 100	90 to 100
3.09	O=C(Cn1cncc1Cl)c1cnc(Oc2ccc(Cl)cc2)cc1C(F)(F)F [IX-43]	90 to 100	90 to 100	90 to 100	80 to 89
3.53	O=C(Cn1cncc1Br)c1ccc(Oc2ccc(OC(F)(F)F)cc2)cc1Br [IX-06]	90 to 100	90 to 100	70 to 79	80 to 89
3.13	O=C(Cn1cncc1Br)c1ccc(Oc2ccc(Cl)cc2)cc1Br [IX-33]	90 to 100	90 to 100	90 to 100	90 to 100
3.1	O=C(Cn1cncc1Br)c1ccc(Oc2ccc(Br)cc2)cc1Cl [IX-39, 1-[4-(4-bromophenoxy)-2-chloro-phenyl]-2-(5-bromoimidazol-1-yl)ethanone]	90 to 100	90 to 100	90 to 100	90 to 100
3.15	O=C(Cn1cncc1Cl)c1ccc(Oc2ccc(Cl)cc2)cc1Br [IX-34]	90 to 100	90 to 100	90 to 100	80 to 89
3.48	N#Cc1cncn1CC(=O)c1ccc(Oc2ccc(I)cc2)cc1F [IX-63]	90 to 100	90 to 100	90 to 100	90 to 100
3.37	O=C(Cn1cncc1Cl)c1ccc(Oc2ccc(Cl)cc2)cc1C(F)(F)F [IX-30]	80 to 89	90 to 100	90 to 100	70 to 79
3.39	N#Cc1cncn1CC(=O)c1ccc(Oc2ccc(Cl)cc2)cc1C(F)F [IX-75]	90 to 100	90 to 100	90 to 100	90 to 100
3.13	O=C(Cn1cncc1Cl)c1ccc(Oc2ccc(Br)cc2)cc1Cl [IX-15, 1-[4-(4-bromophenoxy)-2-chloro-phenyl]-2-(5-chloroimidazol-1-yl)ethanone]	90 to 100	90 to 100	90 to 100	90 to 100
2.48	O=C(Cn1cncc1F)c1ccc(Oc2ccc(C(F)F)cc2)nc1C(F)(F)F [IX-134]	90 to 100	90 to 100	90 to 100	80 to 89
2.75	O=C(Cn1cncc1Cl)c1ccc(Oc2ccc(Cl)cc2)cc1F [IX-45]	90 to 100	90 to 100	70 to 79	90 to 100
3	N#Cc1cncn1CC(=O)c1cnc(Oc2ccc(Cl)cc2)cc1Cl [IX-91]	90 to 100	90 to 100	90 to 100	90 to 100
2.73	O=C(Cn1cncc1F)c1cnc(Oc2ccc(Br)cc2)cc1C(F)(F)F [IX-82, 1-[6-(4-bromophenoxy)-4-(trifluoromethyl)-3-pyridyl]-2-(5-fluoroimidazol-1-yl)ethanone]	90 to 100	90 to 100	90 to 100	70 to 79
3.07	O=C(Cn1cncc1Br)c1ccc(Oc2ccc(Cl)cc2)cc1Cl [IX-18]	90 to 100	90 to 100	90 to 100	90 to 100
2.12	O=C(Cn1cncc1F)c1ccc(Oc2ccc(C(F)F)cc2)nc1Cl [IX-84]	90 to 100	90 to 100	90 to 100	80 to 89
3.55	N#Cc1cncn1CC(=O)c1ccc(Oc2ccc(Cl)cc2)cc1C(F)(F)F [IX-54]	90 to 100	90 to 100	70 to 79	90 to 100
3.16	O=C(Cn1cncc1Br)c1ccc(Oc2ccc(Br)cc2)cc1Br [IX-36]	90 to 100	90 to 100	90 to 100	80 to 89
4.03	O=C(Cn1cncc1C(F)(F)F)c1ccc(Oc2ccc(Cl)cc2)cc1Cl [IX-57]	90 to 100	90 to 100	80 to 89	90 to 100
3.65	N#Cc1cncn1CC(=O)c1ccc(Oc2ccc(Br)cc2)cc1C(F)(F)F [IX-59]	90 to 100	90 to 100	90 to 100	90 to 100
3.41	O=C(Cn1cncc1Cl)c1ccc(Oc2ccc(I)cc2)cc1Cl [IX-13]	90 to 100	90 to 100	90 to 100	90 to 100

From patent US20200031778A1, “NOVEL 5-SUBSTITUTED IMIDAZOLYLMETHYL DERIVATIVES” (Bayer CropScience Aktiengesellschaft, priority 2016, published 2020)
